Reference: patent US9096591B2, “Tetracyclic compounds” (Medivation Technologies, Inc., priority 2007, dated 2015)
Read-outs that look alike come from different tables or passages of the source.

How the values were obtained:
[1] = biological target: T1, human recombinant histamine H1 receptor (Homo sapiens, UniProt P35367); assay: Histamine H1 radioligand binding ([3H]Pyrilamine)
T1 construct: expressed in transfected cells; host or cells: CHO cells
Outline: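 Receptor expressed in CHO cells, assayed in 50 mM Tris-HCl pH 7.4 with 2 mM MgCl2, 100 mM NaCl, 250 mM sucrose. Compounds tested at 1 μM in 1% DMSO; non-specific binding set with 1 μM pyrilamine. Filter-bound radioactivity counted; values are percent inhibition of specific binding.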

[2] = biological target: T2, human recombinant serotonin (5-Hydroxytryptamine) 5-HT2C receptor (Homo sapiens, UniProt P28335); assay: Serotonin 5-HT2C radioligand binding ([3H]Mesulergine); set-up: Inhibition of ligand binding, Ser. 5-HT2C: concentration or dose not given beside the values; conditions: percent inhibition of specific binding
T2 construct: expressed in transfected cells; host or cells: CHO-K1 cells
T2 sequence (P28335 33-458): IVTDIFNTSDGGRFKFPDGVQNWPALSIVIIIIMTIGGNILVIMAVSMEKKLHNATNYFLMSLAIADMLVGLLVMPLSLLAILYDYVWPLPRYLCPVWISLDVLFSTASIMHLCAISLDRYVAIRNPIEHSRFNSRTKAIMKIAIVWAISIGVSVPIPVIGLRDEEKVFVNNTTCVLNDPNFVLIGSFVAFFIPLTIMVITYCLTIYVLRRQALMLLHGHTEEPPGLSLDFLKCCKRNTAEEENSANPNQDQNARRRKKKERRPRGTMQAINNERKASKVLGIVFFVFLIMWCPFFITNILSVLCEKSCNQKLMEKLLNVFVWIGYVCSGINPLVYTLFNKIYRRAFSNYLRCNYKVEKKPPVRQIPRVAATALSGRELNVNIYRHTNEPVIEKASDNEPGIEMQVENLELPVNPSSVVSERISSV
Method: Compounds of the invention were incubated with 1 nM [^3H]Mesulergine for 60 minutes at 25° C. Non-specific binding was estimated in the presence of 1 μM Mianserin. Receptor proteins were filtered and washed, the filters were then counted to determine [^3H]Mesulergine specifically bound. […] Biochemical assay results are presented as the percent inhibition of specific binding in Table 6.

[3] = biological target: T3, human recombinant serotonin (5-Hydroxytryptamine) 5-HT6 receptor (Homo sapiens, UniProt P50406); assay: Serotonin 5-HT6 radioligand binding ([3H]LSD); set-up: Inhibition of ligand binding, Ser. 5-HT6: concentration or dose not given beside the values; conditions: percent inhibition of specific binding
T3 construct: expressed in transfected cells; host or cells: human HeLa cells
T3 sequence (P50406 whole entry): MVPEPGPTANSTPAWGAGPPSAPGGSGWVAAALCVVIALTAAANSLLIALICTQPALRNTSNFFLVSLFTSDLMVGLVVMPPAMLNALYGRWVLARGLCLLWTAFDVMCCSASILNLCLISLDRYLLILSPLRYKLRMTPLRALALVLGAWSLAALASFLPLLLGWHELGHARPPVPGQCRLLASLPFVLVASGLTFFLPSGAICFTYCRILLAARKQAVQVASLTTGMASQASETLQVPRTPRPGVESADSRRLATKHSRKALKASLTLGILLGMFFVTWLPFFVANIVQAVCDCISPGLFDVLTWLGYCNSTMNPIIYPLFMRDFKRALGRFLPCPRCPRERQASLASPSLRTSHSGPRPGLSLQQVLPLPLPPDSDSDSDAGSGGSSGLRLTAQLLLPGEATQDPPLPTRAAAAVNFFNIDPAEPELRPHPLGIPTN
Source text: Receptor proteins were filtered and washed, the filters were then counted to determine [3H]LSD specifically bound. […] Biochemical assay results are presented as the percent inhibition of specific binding in Table 6.

[4] = biological target: T4, human recombinant adrenergic α2B receptor (Homo sapiens, UniProt P18089); assay: Adrenergic α2B radioligand binding ([3H]Rauwolscine); set-up: Inhibition of ligand binding, Adren. alpha2B: concentration or dose not given beside the values; conditions: percent inhibition of specific binding
T4 construct: expressed in transfected cells; host or cells: CHO-K1 cells
T4 sequence (P18089 1-450): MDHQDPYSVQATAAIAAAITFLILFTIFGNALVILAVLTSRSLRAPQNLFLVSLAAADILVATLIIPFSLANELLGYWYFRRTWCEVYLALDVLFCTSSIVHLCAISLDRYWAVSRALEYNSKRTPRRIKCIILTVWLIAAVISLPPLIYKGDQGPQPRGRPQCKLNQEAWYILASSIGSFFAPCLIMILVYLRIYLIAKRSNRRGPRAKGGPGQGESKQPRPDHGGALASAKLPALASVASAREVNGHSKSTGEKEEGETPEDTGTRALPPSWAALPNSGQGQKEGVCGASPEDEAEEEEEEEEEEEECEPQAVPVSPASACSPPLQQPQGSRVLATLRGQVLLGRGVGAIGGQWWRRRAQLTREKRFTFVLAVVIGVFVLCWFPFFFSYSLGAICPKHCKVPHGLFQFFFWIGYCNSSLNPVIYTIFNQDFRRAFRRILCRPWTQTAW
Outline: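 Membranes from CHO-K1 cells expressing the receptor, in 50 mM Tris-HCl pH 7.4 with 12.5 mM MgCl2, 1 mM EDTA, 0.2% BSA, incubated with compounds and 2.5 nM [3H]Rauwolscine for 60 minutes at 25 °C.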

[5] = percent inhibition of specific binding, screened at 1 μM, read-out: Inhibition of ligand binding, Hist. H1
[6] = read-out: Histamine Binding H1, percent inhibition of specific binding

T1 sequence (P35367 whole entry): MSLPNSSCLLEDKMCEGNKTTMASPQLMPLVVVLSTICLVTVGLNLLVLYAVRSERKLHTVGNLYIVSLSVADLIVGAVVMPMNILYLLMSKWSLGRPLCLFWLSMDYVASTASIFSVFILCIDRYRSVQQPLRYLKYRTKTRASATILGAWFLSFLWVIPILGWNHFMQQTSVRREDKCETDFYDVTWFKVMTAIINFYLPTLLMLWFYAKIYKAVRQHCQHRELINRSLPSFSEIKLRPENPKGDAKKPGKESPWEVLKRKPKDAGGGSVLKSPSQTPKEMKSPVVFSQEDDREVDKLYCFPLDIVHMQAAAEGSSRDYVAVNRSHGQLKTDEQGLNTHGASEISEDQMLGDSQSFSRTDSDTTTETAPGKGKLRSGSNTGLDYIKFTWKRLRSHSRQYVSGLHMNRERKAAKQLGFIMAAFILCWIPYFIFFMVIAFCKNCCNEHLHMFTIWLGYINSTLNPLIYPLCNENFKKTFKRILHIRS

Row | SMILES | inhibition at 1 µM [1, 5] | Inhibition of ligand binding, Ser. 5-HT2C [2] | Inhibition of ligand binding, Ser. 5-HT6 [3] | inhibition at 0.03 µM [1, 6] | inhibition at 0.1 µM [1, 6] | inhibition at 1 µM [1, 6] | inhibition at 1 µM ([1]; read-out: Inhibition of ligand binding, Hist. H1) | Inhibition of ligand binding, Adren. alpha2B [4]
1 | Cc1ccc(C(O)Cn2c3c(c4cc(C)ccc42)CN(C)CC3)cc1 (racemic) [Compound 28, racemic-2-(1,2,3,4-tetrahydro-2,8-dimethylpyrido[4,3-b]indol-5-yl)-1-p-tolylethanol] | 85% | 100% | 99% | – | – | – | – | –
2 | CN1CCc2c(c3ccccc3n2CCc2ccccc2)C1 [Compound 2, 2,3,4,5-tetrahydro-2-methyl-5-phenethyl-1H-pyrido[4,3-b]indole] | – | 97% | 95% | 31% | 54% | 87% | 87% | –
3 | Cc1ccc(CCn2c3c(c4cc(Cl)ccc42)CN(C)CC3)cc1 [Compound 43] | 110% | 100% | 102% | – | – | – | – | 108%
4 | CN1CCc2c(c3cc(Cl)ccc3n2CCc2ccc(Cl)cc2)C1 [Compound 45, 5-(4-chlorophenethyl)-8-chloro-2,3,4,5-tetrahydro-2-methyl-1H-pyrido[4,3-b]indole] | 103% | 97% | 103% | – | – | – | – | 102%
5 | Cc1ccc(CCn2c3c(c4cc(C(F)(F)F)ccc42)CN(C)CC3)cc1 [Compound 47] | 81% | 89% | 99% | – | – | – | – | 101%
6 | Cc1ccc2c(c1)c1c(n2CCc2ccc(C)nc2)CCN(C2CC2)C1 [Compound 51] | 94% | 2% | 6% | – | – | – | – | 10%
7 | Cc1ccc(CCn2c3c(c4cc(C(F)(F)F)ccc42)CN(C)CC3)cn1 [Compound 53] | 43% | 12% | 18% | – | – | – | – | 34%
8 | CN1CCc2c(c3cc(Cl)ccc3n2CCc2cccnc2)C1 [Compound 55] | 101% | 87% | 94% | – | – | – | – | 90%
9 | CN1CCc2c(c3cc(Cl)ccc3n2CCc2ccncc2)C1 [Compound 56] | 100% | 87% | 102% | – | – | – | – | 119%
10 | Cc1ccc2c(c1)c1c(n2CCc2cccnc2)CCN(C)C1 [Compound 60] | 101% | 90% | 91% | – | – | – | – | 95%
11 | Cc1ccc2c(c1)c1c(n2CCc2cnccn2)CCN(C)C1 [Compound 62] | 93% | 88% | 83% | – | – | – | – | 90%
12 | Cc1ccc2c(c1)c1c(n2CCc2ccc(C(F)(F)F)nc2)CCN(C)C1 [Compound 68] | 99% | 78% | 88% | – | – | – | – | 111%
13 | CN1CCc2c(c3cc(C(F)(F)F)ccc3n2CCc2ccccc2)C1 [Compound 80, 8-(trifluoromethyl)-2,3,4,5-tetrahydro-2-methyl-5-phenethyl-1H-pyrido[4,3-b]indole] | 89% | 90% | 101% | – | – | – | – | 105%
14 | CN1CCc2c(c3c(Cl)cccc3n2CCc2ccccc2)C1 [Compound 81] | 94% | 98% | 86% | – | – | – | – | 90%
15 | CN1CCc2c(c3ccc(Cl)cc3n2CCc2ccccc2)C1 [Compound 82] | 99% | 95% | 103% | – | – | – | – | 99%
16 | CN1CCc2c(c3cccc(Cl)c3n2CCc2ccccc2)C1 [Compound 83] | 97% | 99% | 106% | – | – | – | – | 96%
17 | CN1CCc2c(c3cc(Cl)ccc3n2CCc2ccc(F)cc2)C1 [Compound 162, 5-(4-fluorophenethyl)-8-chloro-2,3,4,5-tetrahydro-2-methyl-1H-pyrido[4,3-b]indole] | 100% | 94% | 99% | – | – | – | – | 112%
18 | CN1CCc2c(c3cc(Cl)ccc3n2CCC2CCCCC2)C1 [Compound 164, 8-chloro-5-(2-cyclohexylethyl)-2,3,4,5-tetrahydro-2-methyl-1H-pyrido[4,3-b]indole] | 101% | 95% | 99% | – | – | – | – | 93%
19 | CN1CCc2c(c3cc(Cl)ccc3n2CCN2CCOCC2)C1 [Compound 186, 8-chloro-2,3,4,5-tetrahydro-2-methyl-5-(2-morpholinoethyl)-1H-pyrido[4,3-b]indole] | 97% | 89% | 83% | – | – | – | – | 79%
20 | CN1CCc2c(c3c(Cl)cccc3n2CCC2CCCCC2)C1 [Compound 187, 9-chloro-5-(2-cyclohexylethyl)-2,3,4,5-tetrahydro-2-methyl-1H-pyrido[4,3-b]indole] | 64% | 77% | 53% | – | – | – | – | 57%
21 | CN1CCc2c(c3ccc(Cl)cc3n2CCC2CCCCC2)C1 [Compound 188, 7-chloro-5-(2-cyclohexylethyl)-2,3,4,5-tetrahydro-2-methyl-1H-pyrido[4,3-b]indole] | 97% | 66% | 67% | – | – | – | – | 65%
